The test system of test [1] is HT1080 fibrosarcoma cell lines. Put plainly: Taxol dose response screen in HT1080 cells, ABCD protein marker profiling. Type of test: cell-based, human. Conditions: different doses of taxol. The text has this:
Having established feasibility of inter- and intrapatient analyses in clinical samples, it was next sought to explore the feasibility of monitoring cancer treatment over time. To this end, it was first sought to determine if known pathway responses to different drug treatments could be discriminated. […]. […] Notable examples include pS6RP for targeted treatments, and pH2A.X, pATM/ATR (phospho-ataxia telangiectasia mutated/ATM- and Rad3-related) substrate, and cleaved PARP for DNA-damaging agents. Unexpected results, such as epigenetic histone modifications after treatment with a phosphatidylinositol 3-kinase inhibitor (PI3Ki) was also found (FIG. 15E). For additional in vitro validation of treatment, HT1080 fibrosarcoma cell lines were treated with four different doses of taxol.
To evaluate the assay's ability to measure even small marker changes, HT1080 human fibrosarcoma cells were treated with taxol at […] different doses. Marker changes at high doses were compared to marker changes quantified by an independent immunofluorescence screen (FIG. 16A). […] These in vitro studies established that the marker panel could indeed measure pathway changes in response to varying drug mechanisms; furthermore, these changes could be detected in a sensitive, dose-dependent manner.
Immunofluorescence. […]

In test [2] the test system is four human cancer cell lines. Put plainly: Proteomic profiling of olaparib and cisplatin treatments. Conditions: FIGS. 15C-15D. Type of test: cell-based. How it is done:
Proteomic profiling of olaparib and cisplatin treatments was performed for four human cancer cell lines, showing varying drug sensitivities as measured by viability assays (FIGS. 14A-14B and FIG. 15A).
Drug treatments of cell lines. To test the effect of drug treatment on protein expression levels, the cell lines were treated with a number of different chemotherapeutic or molecularly targeted drugs. […] DNA-damaging agents olaparib and cisplatin were applied to cells for 3 days. Changes in protein expression levels were compared to medium controls under identical conditions but without drug treatment.
Data analysis: calculating proteomic expression profiles. Protein expression profiles were extracted from raw data as follows. First, raw DNA counts were normalized via the mean of the internal NanoString positive controls, which account for hybridization efficiency. […]
Correlation between single-cell analysis and bulk measurement was calculated in GraphPad Prism. Spearman r values were calculated without assuming a normal, consistent distribution. Two-sided P values were calculated, where significant markers were identified by comparing two groups (for example, treated versus untreated) in Prism and performing pairwise t tests with an FDR of 0.2 for multiple test correction error. […] Class separability was measured by the Bhattacharya distance.

“Also recorded” adds a separate entry of the source.

As to `CC(=O)O[C@H]1C(=O)[C@@]2(C)[C@H]([C@H](OC(=O)c3ccccc3)[C@]3(O)C[C@H](OC(=O)[C@H](O)[C@@H](NC(=O)c4ccccc4)c4ccccc4)C(C)=C1C3(C)C)[C@]1(OC(C)=O)CO[C@@H]1C[C@@H]2O` [taxol, paclitaxel], the “protein marker changes in response to taxol treatment” value in test [1] is recorded as “dose-response changes; also recorded: dose-response curves”.
For `N.N.[Cl][Pt][Cl]` [cisplatin], the “changes in DNA damage and apoptosis markers” value in test [2] is “degradation of Bim and up-regulation of pERK”.
